Read-outs that look alike come from different tables or passages of the source.
Legend:
[1] = tested on: LPS driven TNFα secretion in Peripheral Blood Mononuclear Cells (PBMC); experiment: cells; type: cell-based; settings: Homo sapiens, LPS 1 ng/mL, supernatant after 18-20 h, ELISA
Method: This assay measures the inhibition of LPS driven TNFα secretion by a test compound in Peripheral Blood Mononuclear Cells (PBMC), which in turn correlates with SIK inhibition.
PBMCs are isolated from human blood samples (buffy coats). The buffy coat is aseptically transferred into a 50 mL Falcon™ tube, and diluted 1/2 in Phosphate Buffered Saline (PBS). […] The tubes are centrifuged for 35 min at 400× g in temperature controlled centrifuge, without brake, at 25° C. PBMCs are aspirated from the white interface layer between sample and Lymphoprep. PBMCs are washed five times in PBS. […] The PBMCs are finally seeded at 400,000 PBMC/160 μL/96-well.
A compound dilution plate is made in 100% DMSO by 3-fold dilution of 10 mM stock solution of test compound. An intermediate dilution plate (10× final concentration) is made by diluting the compound dilution plate 50-fold in RPMI medium.
20 μL of the 10× final concentration compound is added to the cells and incubated for 1 hour at 37° C. before addition of trigger. No trigger conditions/trigger conditions are spiked with equal final DMSO concentrations of 0.2% DMSO. 20 μL of 10×LPS (final concentration 1 ng/mL) solution are added to all wells except for the ‘no trigger wells’ where 20 μL medium is added. Supernatant is collected after 18-20 h for IL-10 and TNFα determination using ELISA.
The plate is then washed once with PBST (PBS+0.05% Tween20) and once with PBS followed by the addition of 100 μL of blocking buffer (1% Bovine Serum Albumin (BSA)-5% Sucrose) and plates are sealed and incubated for at least 4 h at RT. After washing the plate once with PBST and once with PBS, 40 μL of standard or sample are added (TNFα standard curve is prepared using a 1/2 serial dilution starting from 16000 pg/mL; dilutions are made in dilution buffer (PBS+1% BSA)). Plates are washed twice with PBST, and once with PBS, after which 35 μL of the detection antibody is added (final concentration 0.25 μg/mL diluted in dilution buffer) and plates are incubated for at least 2 h at RT. Plates are washed twice with PBST, and once with PBS, where after 35 μL of Strep-HRP conjugate (0.5 μg/mL final concentration diluted in dilution buffer) is added. Plates are incubated in the dark, at RT for at least 45 min but no longer than 1 hour. Plates are washed twice with PBST, and once with PBS. Thereafter, 50 μL of luminol substrate is added to each well (prepared according to manufacturer's instructions), and incubated for 5 min at RT protected from light.
To measure the inhibition of LPS induced TNFα, percentage inhibition (PIN) values are calculated for all concentrations tested, compared to controls.
PIN values are plotted in concentration-response and EC50 values are derived using GraphPad Prism Software, applying 4-parameter nonlinear regression (sigmoidal) curve fitting.

[2] = tested on: LPS-induced TNFα secretion in monocyte-derived macrophages (MdM); experiment: MdM assay: LPS-triggered TNFα (ELISA); type: cell-based, human; settings: Homo sapiens, Macrophage, LPS-triggered TNFα inhibition
Procedure, shortened: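 TNFα ELISA read on supernatants harvested 20 h after LPS (final 200 ng/mL) stimulation. Cells were day-10 macrophages derived from human blood CD14+ monocytes, exposed to 3-fold compound dilutions for 1 h at 37 °C beforehand, with DMSO held at 0.2%.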

SIK3 [3] = biological target: T1, SIK3 (Homo sapiens, UniProt Q9Y2K2); experiment: biochemical
T1 construct: purchased SignalChem S12-11G-100
Procedure, shortened: (§1)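 AMARA peptide phosphorylation by SIK1–3 is quantified through ^33P uptake from a labeled/unlabeled ATP blend. Staurosporine at 10 μM final defines full inhibition, 1% DMSO the uninhibited signal. Quench uses phosphoric acid; counting follows filter capture.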

SIK1 [4] = biological target: T2, SIK1 (Homo sapiens, UniProt P57059); experiment: biochemical; settings: 33P radioactive SIK kinase assay, AMARA peptide, 10 μM ATP; read-out: SIK1 IC50
T2 construct: purchased Carna Biosciences 02-131
Procedure, shortened: as §1

SIK2 [5] = biological target: T3, SIK2 (Homo sapiens, UniProt Q9H0K1); experiment: biochemical; settings: 33P radioactive SIK kinase assay, AMARA peptide, 10 μM ATP
T3 construct: purchased ThermoFisher Scientific PV4792
Procedure, shortened: as §1

[6] = tested on: LPS triggered IL-10 secretion in monocyte-derived macrophages (MdM); experiment: MdM assay: LPS-triggered IL-10 (ELISA); type: cell-based, human; settings: maximal fold change vs LPS only, median across assays
Procedure, shortened: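 Readout is IL-10FCmax, the median across at least two runs of the highest fold change over LPS-only, from ELISA absorbance at 450 nm of 2 h supernatants. Macrophages came from day-10 cultures of human CD14+ monocytes, were given compound for 1 h at 37° C in 0.2% DMSO, then 200 ng/mL LPS.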

SIK3 [7] = biological target: T1, SIK3; experiment: biochemical; settings: ADP-Glo SIK kinase assay
Procedure, shortened: (§2)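 Enzyme–substrate mix was started with ATP and incubated 120 min at RT. ADP formed was quantified by ADP-Glo: 40 min ATP depletion, then 30 min detection reagent converting ADP to ATP for luciferase luminescence, which rises with kinase activity. Controls: 1% DMSO and 10 μM staurosporine (final).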

SIK1 [8] = biological target: T2, SIK1; experiment: biochemical; settings: ADP-Glo SIK kinase assay
Procedure, shortened: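 Wells with 1% DMSO or 10 μM staurosporine (final) define the control window. The kinase reaction with substrate and ATP runs 120 min at RT, followed by ADP-Glo detection: ATP depletion (40 min) and ADP-derived luminescence (30 min).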

SIK2 [9] = biological target: T3, SIK2; experiment: biochemical; settings: ADP-Glo SIK kinase assay
Procedure, shortened: as §2

T3 sequence (Q9H0K1 whole entry): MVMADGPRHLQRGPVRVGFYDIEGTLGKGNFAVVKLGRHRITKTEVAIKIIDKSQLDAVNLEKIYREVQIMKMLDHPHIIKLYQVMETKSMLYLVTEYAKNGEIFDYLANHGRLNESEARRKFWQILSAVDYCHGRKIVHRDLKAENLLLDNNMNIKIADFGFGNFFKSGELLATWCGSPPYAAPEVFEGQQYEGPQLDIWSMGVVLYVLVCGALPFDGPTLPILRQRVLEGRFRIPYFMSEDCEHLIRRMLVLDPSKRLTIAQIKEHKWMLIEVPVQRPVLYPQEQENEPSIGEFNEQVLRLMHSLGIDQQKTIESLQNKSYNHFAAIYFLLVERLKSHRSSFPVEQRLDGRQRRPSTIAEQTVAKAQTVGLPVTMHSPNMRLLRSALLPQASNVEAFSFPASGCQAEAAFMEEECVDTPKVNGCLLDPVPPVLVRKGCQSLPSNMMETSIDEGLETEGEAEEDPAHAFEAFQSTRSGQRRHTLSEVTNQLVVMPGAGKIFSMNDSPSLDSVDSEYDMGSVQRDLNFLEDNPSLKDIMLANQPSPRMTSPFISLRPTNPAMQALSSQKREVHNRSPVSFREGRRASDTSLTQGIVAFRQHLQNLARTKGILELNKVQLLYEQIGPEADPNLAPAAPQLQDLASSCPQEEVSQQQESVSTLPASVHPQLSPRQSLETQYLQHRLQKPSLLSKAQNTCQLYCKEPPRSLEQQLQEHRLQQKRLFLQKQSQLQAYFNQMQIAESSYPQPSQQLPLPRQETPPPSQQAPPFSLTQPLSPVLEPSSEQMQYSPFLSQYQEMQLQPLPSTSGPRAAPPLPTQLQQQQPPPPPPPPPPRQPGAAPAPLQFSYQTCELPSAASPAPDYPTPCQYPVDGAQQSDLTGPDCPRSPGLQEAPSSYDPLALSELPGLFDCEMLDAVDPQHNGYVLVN
T1 sequence (Q9Y2K2 whole entry): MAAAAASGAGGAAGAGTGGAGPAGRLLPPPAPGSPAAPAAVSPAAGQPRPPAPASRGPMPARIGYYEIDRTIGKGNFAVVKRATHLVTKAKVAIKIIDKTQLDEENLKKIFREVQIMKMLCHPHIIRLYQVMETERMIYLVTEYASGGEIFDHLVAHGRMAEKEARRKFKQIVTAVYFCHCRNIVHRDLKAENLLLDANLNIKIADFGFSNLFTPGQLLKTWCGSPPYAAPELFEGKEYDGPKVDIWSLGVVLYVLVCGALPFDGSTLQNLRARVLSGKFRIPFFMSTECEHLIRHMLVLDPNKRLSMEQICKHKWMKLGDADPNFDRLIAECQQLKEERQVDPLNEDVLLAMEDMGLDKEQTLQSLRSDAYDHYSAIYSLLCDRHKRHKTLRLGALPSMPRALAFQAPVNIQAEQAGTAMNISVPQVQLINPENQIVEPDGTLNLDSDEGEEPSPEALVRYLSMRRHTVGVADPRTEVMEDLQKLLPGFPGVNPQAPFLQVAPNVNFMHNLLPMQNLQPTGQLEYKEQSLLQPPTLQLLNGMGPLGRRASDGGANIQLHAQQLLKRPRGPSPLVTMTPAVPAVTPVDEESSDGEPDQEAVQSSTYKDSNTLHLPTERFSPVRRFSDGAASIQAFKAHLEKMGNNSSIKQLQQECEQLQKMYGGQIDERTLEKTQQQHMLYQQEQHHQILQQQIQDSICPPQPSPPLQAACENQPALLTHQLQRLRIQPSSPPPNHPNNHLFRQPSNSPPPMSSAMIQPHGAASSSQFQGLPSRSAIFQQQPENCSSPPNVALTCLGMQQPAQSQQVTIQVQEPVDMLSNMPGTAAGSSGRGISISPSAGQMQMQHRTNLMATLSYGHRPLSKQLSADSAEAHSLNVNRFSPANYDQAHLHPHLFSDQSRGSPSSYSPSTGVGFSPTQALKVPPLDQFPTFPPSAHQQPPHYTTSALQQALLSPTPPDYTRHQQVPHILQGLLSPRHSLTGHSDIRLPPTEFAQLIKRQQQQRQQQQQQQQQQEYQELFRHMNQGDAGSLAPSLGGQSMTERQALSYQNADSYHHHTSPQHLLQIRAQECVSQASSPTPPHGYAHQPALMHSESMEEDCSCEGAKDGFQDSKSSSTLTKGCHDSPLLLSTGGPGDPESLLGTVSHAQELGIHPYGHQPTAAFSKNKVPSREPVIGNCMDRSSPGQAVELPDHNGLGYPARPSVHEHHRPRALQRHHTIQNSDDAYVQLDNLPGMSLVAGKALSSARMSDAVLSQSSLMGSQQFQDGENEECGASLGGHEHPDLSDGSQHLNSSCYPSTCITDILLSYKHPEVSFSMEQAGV
T2 sequence (P57059 whole entry): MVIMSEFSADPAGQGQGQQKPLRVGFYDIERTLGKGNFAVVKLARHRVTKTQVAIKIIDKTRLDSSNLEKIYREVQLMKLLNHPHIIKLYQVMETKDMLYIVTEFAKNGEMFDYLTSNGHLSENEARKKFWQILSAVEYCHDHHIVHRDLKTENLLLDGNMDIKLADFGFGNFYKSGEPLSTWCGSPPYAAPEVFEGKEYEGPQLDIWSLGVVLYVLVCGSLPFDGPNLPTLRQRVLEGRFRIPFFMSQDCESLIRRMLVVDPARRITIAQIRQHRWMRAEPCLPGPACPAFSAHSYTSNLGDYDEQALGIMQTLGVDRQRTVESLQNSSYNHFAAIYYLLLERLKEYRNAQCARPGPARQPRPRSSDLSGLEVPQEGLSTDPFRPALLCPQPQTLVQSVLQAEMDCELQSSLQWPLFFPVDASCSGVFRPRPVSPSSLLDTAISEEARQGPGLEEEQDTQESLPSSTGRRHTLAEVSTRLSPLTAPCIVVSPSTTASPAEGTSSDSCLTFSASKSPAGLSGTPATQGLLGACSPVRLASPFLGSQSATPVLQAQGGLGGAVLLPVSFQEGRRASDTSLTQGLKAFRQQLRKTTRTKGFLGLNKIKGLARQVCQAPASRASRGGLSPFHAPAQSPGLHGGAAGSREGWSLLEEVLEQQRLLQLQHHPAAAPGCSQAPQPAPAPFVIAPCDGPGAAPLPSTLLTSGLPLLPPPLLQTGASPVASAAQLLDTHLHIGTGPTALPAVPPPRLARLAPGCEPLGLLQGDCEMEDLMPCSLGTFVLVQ

| SMILES | EC50 [2] [nM] | IC50 (SIK3 [3]) [nM] | IC50 (SIK1 [4]) [nM] | IC50 (SIK2 [5]) [nM] | IC50 (SIK3 [7]) [nM] | IC50 (SIK1 [8]) [nM] | IC50 (SIK2 [9]) [nM] | EC50 [1] [nM] | IL-10 FCmax median [6] |
| --- | --- | --- | --- | --- | --- | --- | --- | --- | --- |
| COc1cc(-c2cnc3cc(-c4cnn(C)c4)ccn23)cc(OC)c1C(=O)N1CC(F)(F)C1 [Cpd 173, (3,3-difluoroazetidin-1-yl)-[2,6-dimethoxy-4-[7-(1-methylpyrazol-4-yl)imidazo[1,2-a]pyridin-3-yl]phenyl]methanone] | 0.1 to 100 | 0.01 to 10 | 10 to 100 | 0.01 to 10 | 0.01 to 10 | 0.01 to 10 | 0.01 to 10 | 0.1 to 100 | ++ (>1.5-4.5) |
| COc1cc(-c2cnc3cc(-c4cnn(C)c4)ccn23)cc(OC)c1C(=O)N[C@H](C)C(F)(F)F [Cpd 174, 2,6-dimethoxy-4-[7-(1-methylpyrazol-4-yl)imidazo[1,2-a]pyridin-3-yl]-N-[(1R)-2,2,2-trifluoro-1-methyl-ethyl]benzamide] | 0.1 to 100 | 0.01 to 10 | 0.01 to 10 | 0.01 to 10 | 0.01 to 10 | 0.01 to 10 | 0.01 to 10 | 0.1 to 100 | ++ (>1.5-4.5) |
| COc1cc(-n2cnc3cc(-c4ccnc(N5CCN(C)CC5)c4)ccc32)cc(OC)c1C(=O)NCC(F)(F)F [compound 120, 2,6-dimethoxy-4-[5-[2-(4-methylpiperazin-1-yl)-4-pyridyl]benzimidazol-1-yl]-N-(2,2,2-trifluoroethyl)benzamide] | 100 to 1000 | 0.01 to 10 | 10 to 100 | 10 to 100 | 0.01 to 10 | 10 to 100 | 0.01 to 10 | 0.1 to 100 | ++ (>1.5-4.5) |
| COc1cc(-n2cnc3cc(-c4cnn(C)c4)ccc32)cc(OC)c1C(=O)N1CC(C#N)C1 [compound 192, 1-[2,6-dimethoxy-4-[5-(1-methylpyrazol-4-yl)benzimidazol-1-yl]benzoyl]azetidine-3-carbonitrile] | 100 to 1000 | 10 to 100 | 10 to 100 | 10 to 100 | 0.01 to 10 | 10 to 100 | 0.01 to 10 | 100 to 1000 |  |

Second part, led by results:

| EC50 [2] [nM] | IC50 (SIK3 [3]) [nM] | IC50 (SIK1 [4]) [nM] | IC50 (SIK2 [5]) [nM] | IC50 (SIK3 [7]) [nM] | IC50 (SIK1 [8]) [nM] | IC50 (SIK2 [9]) [nM] | SMILES | EC50 [1] [nM] | IL-10 FCmax median [6] |
| --- | --- | --- | --- | --- | --- | --- | --- | --- | --- |
| 0.1 to 100 | 0.01 to 10 | 0.01 to 10 | 0.01 to 10 | 0.01 to 10 | 0.01 to 10 | 0.01 to 10 | COc1cc(-c2cnc3cc(-c4cnn(C)c4)ccn23)cc(OC)c1C(=O)NCC(F)(F)F [Cpd 88] | 0.1 to 100 | ++ (>1.5-4.5) |
| 0.1 to 100 | 0.01 to 10 | 10 to 100 | 0.01 to 10 | 0.01 to 10 | 0.01 to 10 | 0.01 to 10 | COc1cc(-n2cnc3cc(-c4cnn(C5CN(C)C5)c4)ccc32)cc(OC)c1C(=O)NCC(F)(F)F [Cpd 98, 2,6-dimethoxy-4-[5-[1-(1-methylazetidin-3-yl)pyrazol-4-yl]benzimidazol-1-yl]-N-(2,2,2-trifluoroethyl)benzamide] | 0.1 to 100 | ++ (>1.5-4.5) |

— patent publication US12065443B2, “Compounds and pharmaceutical compositions thereof for the treatment of diseases” (priority 2017, dated 2024)
